Measurements as given in PubChem BioAssay (NCI).
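96-well plates; 48 h exposure; 5 concentrations. Endpoints by linear interpolation between flanking doses. Not reached: highest tested concentration assigned. GI50: concentration for 50% inhibition of growth. TGI denotes the concentration required for complete inhibition of growth.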

Experiments:
Assay in all cases: inhibition of tumour cell growth, NCI panel, 48 h
CCRF-CEM leukemia = tested on: CCRF-CEM leukemia
HL-60(TB) leukemia = tested on: HL-60(TB) leukemia
LOX IMVI melanoma = tested on: LOX IMVI melanoma
OVCAR-4 ovarian = tested on: OVCAR-4 ovarian
RPMI-8226 leukemia = tested on: RPMI-8226 leukemia
SF-539 CNS = tested on: SF-539 CNS
SNB-19 CNS = tested on: SNB-19 CNS
UACC-62 melanoma = tested on: UACC-62 melanoma
A498 renal = tested on: A498 renal
EKVX NSCLC = tested on: EKVX NSCLC

| SMILES | GI50 (CCRF-CEM leukemia) | TGI (CCRF-CEM leukemia) | GI50 (HL-60(TB) leukemia) | TGI (HL-60(TB) leukemia) | GI50 (LOX IMVI melanoma) | TGI (LOX IMVI melanoma) | GI50 (OVCAR-4 ovarian) | TGI (OVCAR-4 ovarian) | GI50 (RPMI-8226 leukemia) | TGI (RPMI-8226 leukemia) | GI50 (SF-539 CNS) | TGI (SF-539 CNS) | GI50 (SNB-19 CNS) | TGI (SNB-19 CNS) | GI50 (UACC-62 melanoma) | TGI (UACC-62 melanoma) | TGI (A498 renal) | TGI (EKVX NSCLC) | GI50 (A498 renal) | GI50 (EKVX NSCLC) |
| --- | --- | --- | --- | --- | --- | --- | --- | --- | --- | --- | --- | --- | --- | --- | --- | --- | --- | --- | --- | --- |
| O=C(NC1CCN(Cc2ccccc2)CC1)c1cc(C(=O)NC2CCN(Cc3ccccc3)CC2)cc(C(=O)NC2CCN(Cc3ccccc3)CC2)c1 | 1.75 µM | 5.17 µM | 15.1 µM | > 50 µM | 1.74 µM | 6.94 µM | 2.43 µM | 10.2 µM | 5.52 µM | 20.8 µM | 0.865 µM | 1.62 µM | 8.61 µM | 17.6 µM | 7.71 µM | 15.2 µM |  |  |  |  |
| CCN(CC)C(=O)CNC(=O)OC(C)(C)C |  | > 100 µM |  | > 100 µM |  | > 100 µM |  | > 100 µM |  | > 100 µM |  | > 100 µM |  | > 100 µM |  | > 100 µM | > 100 µM | > 100 µM |  |  |
| O=c1ccccc(-c2ccc(-c3ccco3)cc2)c1O | 0.505 µM | > 100 µM | 0.441 µM | 2.69 µM | 0.472 µM | 11.2 µM | 0.363 µM | 60.2 µM | 0.756 µM | > 100 µM | 0.703 µM | 6.38 µM | 1.04 µM | 22.9 µM | 0.588 µM | 4.14 µM | 25.9 µM | 7.9 µM | 3.46 µM | 0.406 µM |
| COc1cc([C@@H]2c3cc4c(cc3[C@@H](NCc3ccc(C#N)cc3)C3COC(=O)[C@@H]32)OCO4)cc(OC)c1O (stereo not given in full) |  | 7.01 µM |  | 0.771 µM |  | 4.36 µM |  | > 100 µM |  | 5.07 µM |  | 2.36 µM |  | > 100 µM |  | 2.75 µM | 3.84 µM | 5.76 µM |  |  |
| Cc1[nH]c2ccccc2c1C1CC(=O)NC1=O (stereo not given) |  | > 100 µM |  | > 100 µM |  |  |  | > 100 µM |  | > 100 µM |  | > 100 µM |  |  |  | > 100 µM | > 100 µM | > 100 µM |  |  |
| CC(C(=O)c1ccccc1)C1(O)C(=O)Nc2ccccc21 (stereo not given) |  | > 100 µM |  |  |  | > 100 µM |  | > 100 µM |  | > 100 µM |  | > 100 µM |  | > 100 µM |  | > 100 µM | > 100 µM | > 100 µM |  |  |
| C/C(=N\NS(=O)(=O)c1ccc(C)cc1)c1c(O)cc(C)oc1=O |  | > 100 µM |  | > 100 µM |  | > 100 µM |  | > 100 µM |  |  |  | > 100 µM |  | > 100 µM |  | > 100 µM | > 100 µM | > 100 µM |  |  |
| N#Cc1nn(C2OC(COC(=O)c3ccccc3)C(OC(=O)c3ccccc3)C2OC(=O)c2ccccc2)c2nc[nH]c(=O)c12 (stereo not given) |  | 84.7 µM |  | 83.4 µM |  |  |  | > 100 µM |  | > 100 µM |  | > 100 µM |  | > 100 µM |  | > 100 µM | 47.2 µM | > 100 µM |  |  |
| Oc1cccc(Cn2c(-c3cccc(O)c3O)nc3ccccc32)c1O | 7.56 µM | > 100 µM |  |  | 2.84 µM | 15.3 µM | 5.2 µM | > 100 µM | 9.69 µM | > 100 µM | 9.49 µM | 38.4 µM | 13.8 µM | > 100 µM | 3.1 µM | 12.6 µM | 60.4 µM |  | 17.6 µM |  |
| O=C(N/C(=C\c1ccc([N+](=O)[O-])cc1)c1nc2ccc(Cl)cc2[nH]1)c1ccccc1 |  | 95.1 µM |  | 48.5 µM |  |  |  | 60.8 µM |  |  |  | 40.7 µM |  | > 100 µM |  | 50.1 µM |  | 74.6 µM |  |  |
| CC1Cc2c(N)nc(N3CCOCC3)nc2NC1=O (stereo not given) |  | > 100 µM |  | > 100 µM |  | > 100 µM |  |  |  | > 100 µM |  | > 100 µM |  | > 100 µM |  | > 100 µM |  | > 100 µM |  |  |
| CC1(C)CCC2(C(=O)O)CC[C@]3(C)C(=CCC4C5(C)CC[C@H](OC6OC(C(=O)O)C(O)C(OC7OC(CO)C(O)C(O)C7O)C6OC6OC(CO)C(O)C(O)C6O)C(C)(C)C5CCC43C)C2C1 (stereo not given in full) | > 100 µM | > 100 µM |  |  |  |  |  |  | 50.9 µM | > 100 µM | > 100 µM | > 100 µM | > 100 µM | > 100 µM | 23 µM | 50.7 µM | > 100 µM | > 100 µM | > 100 µM | > 100 µM |
| C[C@@H](NC1CCC[C@@H]1O)c1ccccc1 (stereo not given in full) |  | > 100 µM |  | > 100 µM |  | > 100 µM |  | > 100 µM |  | > 100 µM |  |  |  | > 100 µM |  | > 100 µM |  | > 100 µM |  |  |
| CCCC1C(=O)C(CC)Cc2c(OC)ccc(OC)c21 (stereo not given) |  | > 100 µM |  | > 100 µM |  | > 100 µM |  | > 100 µM |  | > 100 µM |  | > 100 µM |  | > 100 µM |  | > 100 µM |  | > 100 µM |  |  |
| C[Si](C)(C)/C=C\CCCN1C(=O)CCC1=O |  | > 100 µM |  | > 100 µM |  | > 100 µM |  |  |  | > 100 µM |  | > 100 µM |  | > 100 µM |  | > 100 µM | > 100 µM | > 100 µM |  |  |
| C[C@@H](Oc1cc(NS(=O)(=O)N2CCC2)nc(SCc2cccc(F)c2F)n1)[C@@H](O)CO | > 100 µM | > 100 µM | > 100 µM | > 100 µM | > 100 µM | > 100 µM | > 100 µM | > 100 µM | > 100 µM | > 100 µM | > 100 µM | > 100 µM | > 100 µM | > 100 µM | > 100 µM | > 100 µM |  | > 100 µM |  | > 100 µM |
| O=C1/C(=C/c2ccccc2Br)COc2ccc(O)c(O)c21 | 0.311 µM | 1.55 µM | 0.379 µM | 2.78 µM | 1.03 µM | 2.32 µM | 2.35 µM | 10.2 µM | 0.261 µM | 0.682 µM |  |  | 1.69 µM | 3.92 µM | 1.55 µM | 3.29 µM | 3.69 µM | 5.23 µM | 1.97 µM | 2.09 µM |
| Cc1ccc(C(=O)CCC2C(=O)CC(C)(C)CC2=O)cc1 |  | 55.1 µM |  |  |  | > 100 µM |  | > 100 µM |  |  |  | > 100 µM |  | > 100 µM |  | > 100 µM |  | > 100 µM |  |  |
